# Results reported in patent US10925858B2, “S-nitrosoglutathione (GSNO) and GSNO reductase inhibitors for use in therapy” (MUSC FOUNDATION FOR RESEARCH DEVELOPMENT, priority 2017, dated 2021).
# Columns and labels:
# diabetic mice = test: Radial arm maze in STZ induced diabetic mice; assay type: in vivo
# Experimental: Male laca mice weighing between 28-32 g were procured from the Central Animal House, Panjab University, Chandigarh. The animals were acclimatized and were fed with standard pellet diet and water ad libitum. The experimental protocols were approved by the Institutional Ethics Committee and were conducted according to Indian National Science Academy (INSA) guidelines for the use and care of experimental animals. The animals were divided into four groups: (i) Control animals received phosphate buffered saline (PBS) throughout the study; (ii) Control+GSNO animals were administered with GSNO 100 μg/kg body weight orally, dissolved in PBS after every 24 h for 8 weeks; (iii) Diabetic animals were injected with STZ at a dose of 40 mg/kg body weight intraperitoneally for 5 days dissolved in 0.1 mol/L citrate buffer, pH 4.5 and Diabetic+GSNO mice were administered GSNO 100 μg/kg body weight orally dissolved in PBS after every 24 h for 8 weeks after the induction of diabetes. Animals were assessed weekly for development of diabetic encephalopathy in terms of memory deficits. All experimental procedures were done on mice at the end of study. Radial arm maze was used to assess specific learning and memory in the radial arm maze (Veena et al., 2009). Its apparatus consisted of equally spaced arms (35×9×5 cm) radiating from an octagonal central platform, and the maze was kept 80 cm elevated from the ground. Prior to the acquisition, all the arms were baited and mice were allowed to explore the maze for 10 min and were subjected to two such acclimatization sessions on consecutive days. […] An arm choice was recorded when the animal reached the end of an arm. An arm entry was counted when all four paws entered the arm. […] After acquisition period, animals were evaluated for retention of the task. […] The data were analyzed for the number of reference memory errors (exploring an arm never baited), working memory errors (exploring a baited arm already visited), total number of errors, memory retention and % correct choice.
# [1] = test system: tight junction proteins (ZO-1, Occludin, Claudin-5); test: Immunofluorescence of tight junction proteins in isolated microvessels of diabetic mice; assay type: in vivo
# Experimental: Male laca mice weighing between 28-32 g were procured from the Central Animal House, Panjab University, Chandigarh. The animals were acclimatized and were fed with standard pellet diet and water ad libitum. The experimental protocols were approved by the Institutional Ethics Committee and were conducted according to Indian National Science Academy (INSA) guidelines for the use and care of experimental animals. The animals were divided into four groups: (i) Control animals received phosphate buffered saline (PBS) throughout the study; (ii) Control+GSNO animals were administered with GSNO 100 μg/kg body weight orally, dissolved in PBS after every 24 h for 8 weeks; (iii) Diabetic animals were injected with STZ at a dose of 40 mg/kg body weight intraperitoneally for 5 days dissolved in 0.1 mol/L citrate buffer, pH 4.5 and Diabetic+GSNO mice were administered GSNO 100 μg/kg body weight orally dissolved in PBS after every 24 h for 8 weeks after the induction of diabetes. Animals were assessed weekly for development of diabetic encephalopathy in terms of memory deficits. All experimental procedures were done on mice at the end of study.
# The microvessels were isolated by the method described by Brooks et al., (2005). Brain tissue was homogenized in microisolation buffer (103 mM NaCl, 4.7 mM KCl, 2.5 mM CaCb, 1.2 mM KH2PO4, 1.2 mM MgSO4, 15 mM HEPES, 2.5 mM NaHCO3, 10 mM D-glucose, 1 mM sodium pyruvate and 10 g/L dextran (64,000 mol wt), pH 7.4) and equal amount of 26% (w/v) dextran was added. The sample was then centrifuged at 5600 g for 10 min and pellets obtained were resuspended in microisolation buffer. Then the suspension was filtered through 70 μm filter (BD Biosciences, Gurgaon, India). […]
# Isolated microvessels were resuspended in PBS and allowed to attach to polylysine-coated slides for 30 min at 37° C. and fixed at 95° C. for 10 min. […] After placement and sealing of coverslips, photographs were taken with 40× objective on a Nikon TE-300 fluorescence microscope with a fluorescein filter (Schulze & Firth 1993).
# [2] = diabetic mice, GSNO 100 μg/kg body weight orally daily for 8 weeks, vs diabetic group
# [3] = microvessels of GSNO supplemented diabetic animals vs untreated diabetic group
smiles,measurement,setting,value
"N[C@@H](CCC(=O)N[C@@H](CSN=O)C(=O)NCC(=O)O)C(=O)O [GSNO, S-nitrosoglutathione]",increase in the percentage of correct choices,diabetic mice; [2],30%
same,lowered number of errors,diabetic mice; [2],44%
same,radial arm maze parameters of GSNO-treated control mice,"diabetic mice; non-diabetic control mice, GSNO 100 μg/kg orally for 8 weeks, vs control mice",not significantly different from control mice
same,claudin-5 fluorescent intensity,[1]; GSNO treated diabetic animals,No change
same,fluorescent intensity for ZO-1,[1]; [3],increased fluorescent intensity
same,fluorescent intensity for occludin,[1]; [3],increased fluorescent intensity
